From ChEMBL document CHEMBL4622894, “An effective method to produce 7-epitaxol from taxol in HCO3” (Bioorg Med Chem Lett, 2020)

What was measured:
Saccharomyces cerevisiae [1] = experiment: Antifungal activity against Saccharomyces cerevisiae S288C assessed as fungal growth inhibition; assay type: functional, organism-based
Saccharomyces cerevisiae [2] = experiment: Antifungal activity against Saccharomyces cerevisiae AD18 assessed as fungal growth inhibition; assay type: functional, organism-based

SMILES: CC(=O)O[C@H]1C(=O)[C@]2(C)[C@H](O)C[C@H]3OC[C@@]3(OC(C)=O)[C@H]2[C@H](OC(=O)c2ccccc2)[C@]2(O)C[C@H](OC(=O)[C@H](O)[C@@H](NC(=O)c3ccccc3)c3ccccc3)C(C)=C1C2(C)C
- IC50 (Saccharomyces cerevisiae [1]): > 100 µM
- IC50 (Saccharomyces cerevisiae [2]): 71.5 µM

SMILES: CC(=O)O[C@H]1C(=O)[C@@]2(C)[C@H]([C@H](OC(=O)c3ccccc3)[C@]3(O)C[C@H](OC(=O)[C@H](O)[C@@H](NC(=O)c4ccccc4)c4ccccc4)C(C)=C1C3(C)C)[C@]1(OC(C)=O)CO[C@@H]1C[C@@H]2O [PACLITAXEL]
- IC50 (Saccharomyces cerevisiae [1]): > 100 µM
- IC50 (Saccharomyces cerevisiae [2]): > 100 µM
